Measured values published in publication PMC11790914, “Chemogenomics for steroid hormone receptors (NR3)” (Communications Chemistry, 2025).
“And” between values parts separate entries of the source, which are not always exact repeats. Equal values may be shown once. Read-outs that look alike come from different tables or passages of the source.

Key:
Gal4-VP16 = type: cell-based; conditions: vs. DMSO ctrl, single replicates n=1-3
Method: Five hours after transfection, the cells were incubated with the NR3 CG compound candidates at the recommended concentrations by changing the medium to Opti-MEM supplemented with penicillin (100 µ/mL) and streptomycin (100 µg/mL) additionally containing 0.1% DMSO and the respective test compound or 0.1% DMSO alone as untreated control. Firefly (reporter) and renilla (control) luminescence were measured after 14–16 h incubation using the Dual-Glo® Luciferase Assay System (Promega, Fitchburg, Wisconsin, USA; #E2980) according to manufacturer’s protocol on a Tecan Spark® 10M multimode microplate reader (Tecan Group AG, Männedorf, Switzerland). To obtain relative light units (RLU) firefly luminescence was divided by renilla luminescence and multiplied by 1000. Fold activation was obtained by dividing the mean RLU of a test sample by the mean RLU of the DMSO (0.1%) control. Experiments were performed in singlets in at least three biologically independent repeats.
are labeled according to their mode of action (yellow - agonist, grey - antagonist, grey with label D - degrader) and grouped by their
NR3 subfamily main targets.
reporter activity at the indicated concentrations expressed as mean fold reporter gene activity (n=3).

ABL1 = biological target: T1, ABL1 (Homo sapiens, UniProt P00519); test: Liability panel screening by DSF: ABL1; type: binding; conditions: DSF, 20 µM, n=2; read-out: Mean ΔTM ABL1
T1 construct: made in house
In short: (§1)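 Thermal shift: in-house recombinant protein at 2 µM in 10 mM HEPES pH 7.5 with 500 mM NaCl, SYPRO Orange 1:1000, heated at 3 °C/min to 85 °C in technical duplicates. Tm is the Boltzmann inflection point, reported as ∆Tm in K.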

AURKA = biological target: T2, AURKA (Homo sapiens, UniProt O14965); test: Liability panel screening by DSF: AURKA; type: binding; conditions: DSF, 20 µM, n=2; read-out: Mean ΔTM AURKA
T2 construct: made in house
T2 sequence (O14965 1-403): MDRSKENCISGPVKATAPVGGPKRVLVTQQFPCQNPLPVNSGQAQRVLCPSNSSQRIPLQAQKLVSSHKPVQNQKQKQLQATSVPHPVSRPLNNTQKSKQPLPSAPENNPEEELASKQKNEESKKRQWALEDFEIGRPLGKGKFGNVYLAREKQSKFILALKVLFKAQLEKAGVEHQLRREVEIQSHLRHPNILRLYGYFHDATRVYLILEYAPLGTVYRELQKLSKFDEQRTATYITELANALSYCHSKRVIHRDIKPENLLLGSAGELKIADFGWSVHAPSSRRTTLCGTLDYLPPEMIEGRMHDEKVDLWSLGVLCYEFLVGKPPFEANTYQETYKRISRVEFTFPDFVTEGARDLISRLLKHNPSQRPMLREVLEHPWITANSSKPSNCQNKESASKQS
In short: as §1

CDK2 = biological target: T3, CDK2 (Homo sapiens, UniProt P24941); test: Liability panel screening by DSF: CDK2; type: binding; conditions: DSF, 20 µM, n=2; read-out: Mean ΔTM CDK2
T3 construct: made in house
In short: as §1

GSK3B = biological target: T4, GSK3B (Homo sapiens, UniProt P49841); test: Liability panel screening by DSF: GSK3B; type: binding; conditions: DSF, 20 µM, n=2; read-out: Mean ΔTM GSK3B
T4 construct: made in house

BRPF1 = biological target: T5, BRPF1 (Homo sapiens, UniProt P55201); test: Liability panel screening by DSF: BRPF1; type: binding; conditions: DSF, 20 µM, n=2; read-out: Mean ΔTM BRPF1
T5 construct: This panel comprised ten highly ligandable kinases and bromodomains; made in house
T5 sequence (P55201 628-732 limits assumed): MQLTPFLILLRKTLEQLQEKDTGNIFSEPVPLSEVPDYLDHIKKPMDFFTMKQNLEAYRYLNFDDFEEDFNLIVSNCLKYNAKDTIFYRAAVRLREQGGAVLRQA
In short: as §1

CSNK1D = biological target: T6, CSNK1D (Homo sapiens, UniProt P48730); test: Liability panel screening by DSF: CSNK1D; type: binding; conditions: DSF, 20 µM, n=2; read-out: Mean ΔTM CSNK1D
T6 construct: made in house
In short: as §1

MAPK1 = biological target: T7, MAPK1 (Homo sapiens, UniProt P28482); test: Liability panel screening by DSF: MAPK1; type: binding; conditions: DSF, 20 µM, n=2; read-out: Mean ΔTM MAPK1
T7 construct: made in house
In short: as §1

TRIM24 = biological target: T8, TRIM24 (Homo sapiens, UniProt O15164); test: Liability panel screening by DSF: TRIM24; type: binding; conditions: DSF, 20 µM, n=2; read-out: Mean ΔTM TRIM24
T8 construct: This panel comprised ten highly ligandable kinases and bromodomains; made in house
T8 sequence (O15164 899-1004 limits assumed): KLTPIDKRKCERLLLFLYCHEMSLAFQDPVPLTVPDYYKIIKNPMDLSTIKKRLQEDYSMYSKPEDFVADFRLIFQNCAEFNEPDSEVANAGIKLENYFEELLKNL
In short: as §1

[1] = system: NF-κB activity in HEK293 NF-κB reporter cells; test: NF-kB activity assay (GFP reporter, ionomycin/PMA); type: cell-based; conditions: n=3
In short: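 Reporter readout: GFP-expressing cells normalized to confluence, imaged every 90 min across 24 h after ionomycin (100 ng/mL)/PMA (10 ng/mL) stimulation of HEK293 cells pre-treated 4 h with compound (0.1% DMSO); triplicate independent experiments.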

[2] = system: ATF6 activity in Hela ATF6 reporter cells; test: Endoplasmic reticulum stress assay (ATF6 Renilla luciferase reporter, tunicamycin); type: cell-based; conditions: for ATF6 activity (tunicamycin-induced endoplasmic reticulum stress): Hela ATF6 reporter cells, tunicamycin 100 ng/mL, 18 h
In short: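 ER stress was induced by 100 ng/mL tunicamycin added 4 h after compound (0.1% DMSO) to HeLa ATF6 reporter cells. After 18 h more, Renilla luciferase signal was read and expressed relative to DMSO control, n=5 biological replicates.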

HEK293T cells [3] = test: Cytotoxicity: growth-rate (change in confluence over 24 h); conditions: normalized to 0.1% DMSO control, single replicates (n=1...)
HEK293T cells [4] = test: Cytotoxicity: apoptosis induction (caspase-3/7 DEVD fluorogenic DNA dye); conditions: HEK293T, 24 h, apoptotic cell count normalized to 0.1% DMSO, single replicates

T7 sequence (P28482 whole entry, species assumed): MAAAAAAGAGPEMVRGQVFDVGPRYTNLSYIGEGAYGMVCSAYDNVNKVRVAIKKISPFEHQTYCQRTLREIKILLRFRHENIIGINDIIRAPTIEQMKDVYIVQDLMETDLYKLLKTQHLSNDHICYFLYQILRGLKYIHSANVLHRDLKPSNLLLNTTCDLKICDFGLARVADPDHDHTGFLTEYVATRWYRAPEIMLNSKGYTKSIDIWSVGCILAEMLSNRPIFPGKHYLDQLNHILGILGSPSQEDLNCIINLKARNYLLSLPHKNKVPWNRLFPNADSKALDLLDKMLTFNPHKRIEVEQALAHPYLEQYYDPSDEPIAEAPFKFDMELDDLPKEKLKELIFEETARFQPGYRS
T1 sequence (P00519 whole entry, species assumed): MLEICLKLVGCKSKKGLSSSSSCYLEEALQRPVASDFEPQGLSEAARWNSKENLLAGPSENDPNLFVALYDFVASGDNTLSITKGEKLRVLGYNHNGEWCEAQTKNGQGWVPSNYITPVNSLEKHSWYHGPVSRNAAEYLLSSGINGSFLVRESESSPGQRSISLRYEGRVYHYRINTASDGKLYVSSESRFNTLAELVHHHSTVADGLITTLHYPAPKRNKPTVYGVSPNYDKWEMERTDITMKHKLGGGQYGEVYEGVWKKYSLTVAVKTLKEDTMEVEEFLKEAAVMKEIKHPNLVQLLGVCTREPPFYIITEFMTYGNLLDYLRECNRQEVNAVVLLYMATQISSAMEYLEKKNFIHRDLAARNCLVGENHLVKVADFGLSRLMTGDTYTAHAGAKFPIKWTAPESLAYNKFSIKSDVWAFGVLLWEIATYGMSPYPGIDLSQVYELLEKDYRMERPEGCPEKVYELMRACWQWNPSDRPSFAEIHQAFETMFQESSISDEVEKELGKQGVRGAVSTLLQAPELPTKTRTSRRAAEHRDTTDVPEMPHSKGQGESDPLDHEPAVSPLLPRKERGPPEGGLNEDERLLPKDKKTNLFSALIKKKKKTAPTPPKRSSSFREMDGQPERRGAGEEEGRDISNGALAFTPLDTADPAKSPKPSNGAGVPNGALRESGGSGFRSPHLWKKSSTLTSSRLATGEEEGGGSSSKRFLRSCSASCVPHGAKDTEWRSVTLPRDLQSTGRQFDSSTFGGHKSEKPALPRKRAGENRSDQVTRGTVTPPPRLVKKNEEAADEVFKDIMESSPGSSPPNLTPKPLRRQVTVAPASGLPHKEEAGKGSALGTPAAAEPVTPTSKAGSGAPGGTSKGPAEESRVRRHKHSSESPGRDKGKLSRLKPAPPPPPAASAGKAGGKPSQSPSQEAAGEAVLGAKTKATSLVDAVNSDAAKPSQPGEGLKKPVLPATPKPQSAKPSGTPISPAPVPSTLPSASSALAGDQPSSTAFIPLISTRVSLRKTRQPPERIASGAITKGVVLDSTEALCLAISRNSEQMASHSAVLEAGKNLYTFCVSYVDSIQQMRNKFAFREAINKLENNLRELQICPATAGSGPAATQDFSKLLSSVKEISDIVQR
T4 sequence (P49841 whole entry, species assumed): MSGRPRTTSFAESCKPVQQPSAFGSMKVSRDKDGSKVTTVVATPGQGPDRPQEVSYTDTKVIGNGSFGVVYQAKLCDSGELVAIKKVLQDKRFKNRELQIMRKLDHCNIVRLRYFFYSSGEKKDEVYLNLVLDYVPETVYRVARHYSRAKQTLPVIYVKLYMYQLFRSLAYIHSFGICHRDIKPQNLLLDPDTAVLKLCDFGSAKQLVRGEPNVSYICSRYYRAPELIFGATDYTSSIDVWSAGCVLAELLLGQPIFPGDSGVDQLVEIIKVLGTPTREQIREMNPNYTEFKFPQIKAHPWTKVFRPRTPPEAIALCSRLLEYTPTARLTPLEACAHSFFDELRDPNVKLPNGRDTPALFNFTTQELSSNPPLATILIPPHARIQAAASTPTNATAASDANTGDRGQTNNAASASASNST
T6 sequence (P48730 whole entry, species assumed): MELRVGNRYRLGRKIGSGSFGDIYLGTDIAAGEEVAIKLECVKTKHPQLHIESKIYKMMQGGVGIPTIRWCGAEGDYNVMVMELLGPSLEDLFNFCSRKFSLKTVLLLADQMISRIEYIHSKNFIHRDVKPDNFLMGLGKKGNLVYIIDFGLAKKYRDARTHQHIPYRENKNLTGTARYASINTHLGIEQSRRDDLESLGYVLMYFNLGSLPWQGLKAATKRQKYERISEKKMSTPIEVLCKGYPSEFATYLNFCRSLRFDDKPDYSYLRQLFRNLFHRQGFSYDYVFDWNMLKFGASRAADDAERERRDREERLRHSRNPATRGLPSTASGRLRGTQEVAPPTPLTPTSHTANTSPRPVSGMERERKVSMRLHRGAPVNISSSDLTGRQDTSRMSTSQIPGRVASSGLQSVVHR

With CC/C(=C(\c1ccc(O)cc1)c1ccc(OCCN(C)C)cc1)c1ccccc1 [(Z)-4-Hydroxytamoxifen] the “VP16 control [fold reporter gene activity]” value (Gal4-VP16; 0.3 µM) was 1.09 fold reporter gene activity and 0.88 fold reporter gene activity and 1.33 fold reporter gene activity, the “VP16 control [fold reporter gene activity]” value (Gal4-VP16; 3 µM) was 1.11 fold reporter gene activity and 1.04 fold reporter gene activity and 1.49 fold reporter gene activity and the ΔTm at 20 µM (ABL1) was 0.29 °C. For the same molecule, the ΔTm at 20 µM (AURKA) was 0.07 °C, the ΔTm at 20 µM (CDK2) was -0.23 °C and the ΔTm at 20 µM (GSK3B) was -1.45 °C. It also gave a ΔTm at 20 µM (BRPF1) of -1.98 °C, a ΔTm at 20 µM (CSNK1D) of 0.12 °C and a ΔTm at 20 µM (MAPK1) of 0.0336 °C. The ΔTm at 20 µM (TRIM24) was -0.41 °C, the “Mean NFκB response” value ([1]; 0.3 µM, 1,5 h) was 2504.77 GFP+-cells/confluence ∙ 1000 and the “Mean NFκB response” value ([1]; 0.3 µM, 4,5 h) was 3089.76 GFP+-cells/confluence ∙ 1000. The “Mean NFκB response” value ([1]; 0.3 µM, 7,5 h) was 8223.00 GFP+-cells/confluence ∙ 1000, the “Mean NFκB response” value ([1]; 0.3 µM, 10,5 h) was 20009.52 GFP+-cells/confluence ∙ 1000 and the “Mean NFκB response” value ([1]; 0.3 µM, 13,5 h) was 28937.88 GFP+-cells/confluence ∙ 1000. The “Mean NFκB response” value ([1]; 0.3 µM, 16,6 h) was 35283.33 GFP+-cells/confluence ∙ 1000, the “Mean NFκB response” value ([1]; 0.3 µM, 19,5 h) was 40116.67 GFP+-cells/confluence ∙ 1000 and the “Mean NFκB response” value ([1]; 0.3 µM, 22,5 h) was 43200.00 GFP+-cells/confluence ∙ 1000. For the same molecule, the “Mean NFκB response” value ([1]; 0.3 µM, 3 h) was 2555.89 GFP+-cells/confluence ∙ 1000, the “Mean NFκB response” value ([1]; 0.3 µM, 6 h) was 4572.00 GFP+-cells/confluence ∙ 1000 and the “Mean NFκB response” value ([1]; 0.3 µM, 9 h) was 14658.14 GFP+-cells/confluence ∙ 1000. For the same molecule, the “Mean NFκB response” value ([1]; 0.3 µM, 12 h) was 24637.27 GFP+-cells/confluence ∙ 1000, the “Mean NFκB response” value ([1]; 0.3 µM, 15 h) was 32269.00 GFP+-cells/confluence ∙ 1000 and the “Mean NFκB response” value ([1]; 0.3 µM, 18 h) was 37590.00 GFP+-cells/confluence ∙ 1000. The “Mean NFκB response” value ([1]; 0.3 µM, 21 h) was 41653.33 GFP+-cells/confluence ∙ 1000, the “Mean NFκB response” value ([1]; 0.3 µM, 24 h) was 44413.33 GFP+-cells/confluence ∙ 1000 and the “Mean NFκB response” value ([1]; 3 µM, 1,5 h) was 2613.90 GFP+-cells/confluence ∙ 1000. The “Mean NFκB response” value ([1]; 3 µM, 4,5 h) was 3334.14 GFP+-cells/confluence ∙ 1000, the “Mean NFκB response” value ([1]; 3 µM, 7,5 h) was 7514.38 GFP+-cells/confluence ∙ 1000 and the “Mean NFκB response” value ([1]; 3 µM, 10,5 h) was 19242.21 GFP+-cells/confluence ∙ 1000. The “Mean NFκB response” value ([1]; 3 µM, 13,5 h) was 28764.40 GFP+-cells/confluence ∙ 1000, the “Mean NFκB response” value ([1]; 3 µM, 16,6 h) was 35561.15 GFP+-cells/confluence ∙ 1000 and the “Mean NFκB response” value ([1]; 3 µM, 19,5 h) was 40217.80 GFP+-cells/confluence ∙ 1000. For the same molecule, the “Mean NFκB response” value ([1]; 3 µM, 22,5 h) was 43818.60 GFP+-cells/confluence ∙ 1000, the “Mean NFκB response” value ([1]; 3 µM, 3 h) was 2770.52 GFP+-cells/confluence ∙ 1000 and the “Mean NFκB response” value ([1]; 3 µM, 6 h) was 4451.37 GFP+-cells/confluence ∙ 1000. The “Mean NFκB response” value ([1]; 3 µM, 9 h) was 13511.36 GFP+-cells/confluence ∙ 1000, the “Mean NFκB response” value ([1]; 3 µM, 12 h) was 24240.37 GFP+-cells/confluence ∙ 1000 and the “Mean NFκB response” value ([1]; 3 µM, 15 h) was 32735.51 GFP+-cells/confluence ∙ 1000. For the same molecule, the “Mean NFκB response” value ([1]; 3 µM, 18 h) was 38442.69 GFP+-cells/confluence ∙ 1000, the “Mean NFκB response” value ([1]; 3 µM, 21 h) was 42295.79 GFP+-cells/confluence ∙ 1000 and the “Mean NFκB response” value ([1]; 3 µM, 24 h) was 44964.03 GFP+-cells/confluence ∙ 1000. The “ATF6 activity (tunicamycin-induced endoplasmic reticulum stress)” value ([2]; 0.3 µM) was “mediated resolution of the tunicamycin-induced endoplasmic reticulum stress”, the “ATF6 activity (tunicamycin-induced endoplasmic reticulum stress)” value ([2]; 3 µM) was “lacked this effect” and the activity at 0.3 µM ([2]; Homo sapiens, HeLa, 0.3 µM, single replicates n=1 to n=5, read-out: ER stress [rel. ATF6 activity]) was 51%. The “Growth rate [GR]” value (HEK293T cells [3]; 0.3 µM) was 1.08 and 2.89 and 1.33 and 1.37 and 0.91 and 0.88 and 0.61 and 1.06 and 2.68 and 37.77, the “Growth rate [GR]” value (HEK293T cells [3]; 3 µM) was 0.97 and 4.28 and 1.10 and 0.79 and 0.56 and 0.41 and 0.43 and 1.54 and 1.12 and 39.66 and the “Apoptosis induction [AI]” value (HEK293T cells [4]; 0.3 µM) was 0.84 and 1.40 and 1.81 and 1.38 and 0.62 and 0.65. For the same molecule, the “Apoptosis induction [AI]” value (HEK293T cells [4]; 3 µM) was 1.07 and 1.34 and 1.98 and 1.60 and 1.04 and 1.22.
